Measurements as given in patent US6337327B1, “Pharmaceutical compositions comprising an aldose reductase inhibitor and an ace inhibitor” (Zeneca Limited, priority 1997, dated 2002).

Test system: rats rendered diabetic by streptozotocin (sciatic nerve branch to tibialis anterior muscle)
Test: Motor nerve conduction velocity in streptozotocin-diabetic rats
Format: in vivo, Male Sprague-Dawley rats
Details: lisinopril 0.3 mg/kg/day; for Nerve conduction velocity (mean±SEM): diabetic rats, 6 weeks untreated diabetes then 2 weeks treatment in the drinking water, ZD5522 0.25 mg/kg/day, or both, nondiabetic control 64.4±0.5, untreated diabetic 50.9±0.5; for increase in conduction velocity: single-agent treatment for 2 weeks vs untreated diabetic rats, ZD5522 0.25 mg/kg/day
Protocol: Male Sprague-Dawley rats, 19 weeks old at the start of the study, were divided into non-diabetic animals (normal control group) and animals rendered diabetic by intraperitoneal administration of streptozotocin, (40-45 mg/kg, freshly dissolved in sterile saline). Diabetes was verified 24 hours later by estimating hyperglycemia and glucosuria (Visidex II and Diastix; Ames, Slough, UK). Diabetic rats were tested weekly and weighed daily. […] Samples were taken from the tail vein or carotid artery after final experiments for plasma glucose determination (GOD-Perid method; Boehringer Mannheim, Mannheim, Germany). After 6 weeks of untreated diabetes, groups of rats were treated for a further 2 weeks with lisinopril (0.3 mg/kg/day) or the aldose reductase inhibitor, ZD5522 (0.25 mg/kg/day) or a combination of the two drugs, dissolved in the drinking water.
At the end of the treatment period, rats were anesthetized with thiobutabarbitone by intraperitoneal injection (50-100 mg/kg). The trachea was cannulated for artificial ventilation and a cartoid cannula was used to monitor mean systemic blood pressure. Motor nerve conduction velocity was measured (as previously described by Cameron et al, Diabetologia, 1993, Vol. 36, pages 299-304) between sciatic notch and knee in the nerve branch to tibialis anterior muscle, which is representative of the whole sciatic nerve in terms of susceptibility to diabetes and treatment effects.

Which results are given for Cc1ccccc1CC(=O)Nc1cc(C)c(S(=O)(=O)C[N+](=O)[O-])c(C)c1 [ZD5522, 3′,5′-dimethyl-4′-nitromethylsulfonyl-2-(2-tolyl)acetanilide]?
Nerve conduction velocity (mean±SEM): 53.7±0.3 m/s; increase in conduction velocity: ~20%

For NCCCC[C@H](N[C@@H](CCc1ccccc1)C(=O)O)C(=O)N1CCC[C@H]1C(=O)O [lisinopril], which “Nerve conduction velocity (mean±SEM)” value is on record?
Its value is 53.9±0.6 m/s.

What about the “increase in conduction velocity” value of the same compound?
Its value is about 20%.
